One experiment concerns the target T1, full-length WT STING (Homo sapiens, UniProt Q86WV6, H232R).
T1 construct: AviTag (after gg linker) (C); HRV3C cleavage site (after gs linker) (C); HIS8 (C); made in house; host or cells: Trichoplusia ni (Hi-Five) insect cells infected with baculovirus (virus generated and amplified in Sf21 cells); used as a washed membrane preparation
The experiment can be described thus: 3H-cGAMP filtration binding assay (WT STING). The settings on record: for EC50: competition with tritiated cGAMP, WT STING membrane. The procedure:
The ability of compounds to bind STING is quantified by their ability to compete with tritiated cGAMP ligand for human STING receptor membrane using a radioactive filter-binding assay. The binding assay employs STING receptor obtained from Trichoplusia ni cell membranes (T. ni; Expression Systems, cat #94-002F, www.expressionsystems.com) overexpressing full-length WT STING and tritiated cGAMP ligand.
The basic WT STING filtration assay protocol is as follows:
16 nM of [^3H] c-GAMP ligand was prepared by diluting into assay buffer, and 50 uL of this working stock was manually added to each well of the assay plate. After ligand addition, 2 uL of either titrated test compound, DMSO control (Sigma #276855), or cold cGAMP control was added to the appropriate wells using a BIOMEK FX. The serially titrated compound was prepared on a Hamilton STARPlus CORE in a 96-well plate (Greiner, #651201) using a 1:3 ten-point dose response format. Following compound addition, a 2.2 ug/ml working concentration of STING membrane (SEQ. ID. No. 3) was prepared by diluting concentrated membrane into assay buffer (1×PBS; Invitrogen # SH30028.02) and douncing 7× using a manual tissue homogenizer (Wheaton, #357546). 148 uL of this prepared membrane was then manually added to each well of a 96-well deep-well polypropylene plate (Fisher Scientific, #12-566-121). Compound, ligand, and membrane then incubated for 60 min at RT before the contents of each assay plate were filtered through a 96-well GF/B filter plate (PerkinElmer, #6005250) using a TOMTEC MACH III Cell Harvester equipped with 20 mM HEPES buffer (Fisher Scientific, # BP299500). The filter plates were then dried at 55° C. for 30 min using a pressurized VWR oven before 30 uL of ULTIMA GOLD F scintillate was added to each well. Tritium levels for each reaction well were then measured using a PerkinElmer TopCount plate reader.
(§1) After normalization to controls, the percent activity for each compound concentration was calculated by measuring the amount of remaining radioactivity. The plot of percent activity versus the log of compound concentration was fit with a 4-parameter dose response equation to calculate EC50 values.

The subject of experiment [1] is secretion of interferon-beta from THP1 cells. The experiment can be described thus: IFN-β secretion in THP1 cell culture (5 h). The format is cell-based. The settings on record: Homo sapiens, THP-1, 5 h, compound at 30 μM, 30 uM cGAMP = 100%, read-out: % Effect at 30 μM relative to 2′3′-cGAMP. The protocol:
The ability of compounds to stimulate the secretion of interferon-beta from THP1 cells was measured using a human IFN-β AlphaLISA kit (Perkin Elmer, Cat. No. AL265F). The basic protocol is as follows:
A Labcyte Echo 550 acoustic dispenser was used to transfer 120 nL of compound dissolved in DMSO into the wells of an empty, sterile 384-well microplate, (Corning, Cat. No. 3712). THP1 cells (American Type Culture Collection, Cat. No. TIB202) previously frozen in Recovery Medium (Life Technologies, Cat. No. 12648-010) were thawed and immediately diluted 10-fold into 37° C. assay medium (RPMI 1640+L-Glutamine & phenol red, Life Technologies, Cat. No. 11875-085; 0.5% heat inactivated fetal bovine serum, Sigma Aldrich, Cat. No. F4135; 1 mM Sodium Pyruvate, Life Technologies, Cat. No. 11360-070; 1× non-essential amino acids; Life Technologies, Cat. No. 11140-050). The cell viability and count was ascertained using a Beckman Coulter V-Cell XR cell counter. The cells suspension was centrifuged at 200×g for 5 min at RT. Cells were resuspended to a density of 0.8×10^6/mL in 37° C. assay medium. Subsequent liquid transfers were performed using either a Matrix electronic multichannel pipette or an Agilent Bravo Automated Liquid Handling Platform.
The assay was started by dispensing 40 μL of the previously prepared cell suspension into the wells of the plate containing compounds. After 5 h incubation at 37° C., 5% CO2 in a humidified atmosphere, the plate of cells and compounds was centrifuged at 200×g for 5 min at RT. From each well, 5 μL of supernatant was transferred into corresponding wells of a white 384-well plate (Perkin Elmer, Cat. No. 6005620). To these supernatant-containing wells was added 10 μL of 5× Anti-Analyte Acceptor beads (50 μg/mL of AlphaLISA HiBlock Buffer) and incubated for 30 min at RT while shaking on an orbital plate shaker. To each well was added 10 μL of 5× Biotinylated Antibody Anti-analyte (5 nM in AlphaLISA HiBlock Buffer) and incubated on an orbital plate shaker for 60 min at RT or overnight at 4° C. To each well was added 25 μL of 2× SA-Donor beads (80 μg/mL in AlphaLISA HiBlock Buffer) and incubated for 30-45 min at RT in the dark while shaking on an orbital plate shaker. The plate was then read on a Perkin Elmer Envision (λex=680 nm, […]). The percent effect of the AlphaLISA signal at each compound concentration was calculated based on 30 uM cGAMP positive controls and 0.3% DMSO negative controls. The plot of percent effect versus the log of compound concentration was fit with a 4-parameter concentration response equation to calculate EC50 values. The test compounds were tested at concentrations 30000, 10000, 3333, 1111, 370.4, 123.4, 41.2, 13.7, 4.6, and 1.5 nM with 0.3% residual DMSO. The control compound, cGAMP was tested at concentrations 100000, 33333, 11111, 3704, 1235, 412, 137, 46, and 15 nM with 0.3% residual DMSO.
Compounds of the disclosure were evaluated for IFN-β secretion in THP1 cell culture as described above. The following table tabulates the biological data for these compounds as percent activation relative to 2′3′-cGAMP at the 30 µM concentration.

In another experiment the target is T2, full-length HAQ STING (Homo sapiens, UniProt Q86WV6, G230A/H232R/R293Q/R71H).
T2 construct: AviTag (after GG linker) (C); HRV3C cleavage site (after GS linker) (C); HIS8 (C); made in house; host or cells: Trichoplusia ni (Hi-Five) insect cells infected with baculovirus (virus generated and amplified in Sf21 cells); used as a washed membrane preparation
T2 sequence (Q86WV6 with tags, fused parts or gaps R71H/G230A/H232R/R293Q): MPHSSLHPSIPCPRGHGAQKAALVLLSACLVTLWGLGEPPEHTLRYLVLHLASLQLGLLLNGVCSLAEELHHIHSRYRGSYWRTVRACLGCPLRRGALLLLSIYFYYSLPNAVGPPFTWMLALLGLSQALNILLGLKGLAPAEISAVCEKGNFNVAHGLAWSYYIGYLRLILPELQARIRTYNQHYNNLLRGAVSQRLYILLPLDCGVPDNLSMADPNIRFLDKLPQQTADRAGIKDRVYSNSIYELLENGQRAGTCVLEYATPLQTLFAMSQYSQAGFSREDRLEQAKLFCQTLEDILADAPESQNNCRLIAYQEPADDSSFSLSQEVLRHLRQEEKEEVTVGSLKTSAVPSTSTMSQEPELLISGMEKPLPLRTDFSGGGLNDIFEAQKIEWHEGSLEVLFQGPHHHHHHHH
Description: 3H-cGAMP filtration binding assay (HAQ STING). The note with it: competition with tritiated cGAMP, HAQ STING membrane.
Source text: The ability of compounds to bind STING is quantified by the ability to compete with tritiated cGAMP ligand for human STING receptor membrane using a radioactive filter-binding assay. The binding assay employs STING receptor obtained from Hi-Five cell membranes overexpressing full-length HAQ STING prepared in-house and tritiated cGAMP ligand also purified in-house.
The ability of compounds to bind STING is quantified by their ability to compete with tritiated cGAMP ligand for human STING receptor membrane using a radioactive filter-binding assay. The binding assay employs STING receptor obtained from Trichoplusia ni cell membranes (T. ni; Expression Systems, cat #94-002F, www.expressionsystems.com) overexpressing full-length HAQ STING and tritiated cGAMP ligand.
The basic HAQ STING filtration assay protocol is as follows:
The compounds were serially titrated by the Hamilton STARPlus CORE in a 96-well plate (Greiner, #651201) using a 1:3 ten-point dose response format. After compound preparation, a 2.2 ug/ml working concentration of STING membrane (SEQ. ID. No. 1) was prepared by diluting concentrated membrane into assay buffer (1×PBS; Invitrogen # SH30028.02) and douncing 7× using a manual tissue homogenizer (Wheaton, #357546). 148 uL of prepared membrane was then manually added to each well of a 96-well deep-well polypropylene plate (Fisher Scientific, #12-566-121). Following membrane addition, 2 uL of either titrated test compound, DMSO control (Sigma #276855), or cold cGAMP control was added to the appropriate wells using a BIOMEK FX. Compound and membrane then preincubated for 60 min at RT to allow compound binding to equilibrate. Following equilibration, 8 nM of [^3H]c-GAMP ligand was prepared by diluting into assay buffer, and 50 uL of this working stock was then manually added to each well of the assay plate. Plates were then incubated at RT for 60 min, and the contents of each assay plate were then filtered through a 96-well GF/B filter plate (PerkinElmer, #6005250) using a TOMTEC MACH III Cell Harvester equipped with 20 mM HEPES buffer (Fisher Scientific, # BP299500). The filter plates were then dried at 55° C. for 30 min using a pressurized oven before 30 uL of ULTIMA GOLD F scintillate was added to each well. Tritium levels for each reaction well were then measured using a PerkinElmer TopCount plate reader.
as §1

T1 sequence (Q86WV6 with tags, fused parts or gaps H232R): as the sequence (Q86WV6 with tags, fused parts or gaps R71H/G230A/H232R/R293Q) above, with H71R, A230G, Q293R counted along it

The EC50 is the concentration giving half of the maximal effect. A higher EC50 goes with lower potency in that assay. As for `COc1cc2sc(C(=O)CCC(=O)O)cc2c(F)c1OCCCOc1c(OC)cc2sc(C(=O)[C@@H]3C[C@H]3C(=O)O)cc2c1F` (relative stereo) [Example 88, trans-2-(5-(3-((2-(3-carboxypropanoyl)-4-fluoro-6-methoxybenzo[b]thiophen-5-yl)oxy)propoxy)-4-fluoro-6-methoxybenzo[b]thiophene-2-carbonyl)cyclopropane carboxylic acid], the EC50 on full-length WT STING was determined as 109 nM; on full-length HAQ STING it was 3 nM. For the same molecule, the activation at 30 µM in experiment [1] is 152%.

With `COc1cc2sc(CCC(C)(C)C(=O)O)cc2c(F)c1OCCCOc1c(OC)cc2sc(C(=O)[C@@H]3CC[C@H]3C(=O)O)cc2c1F` (relative stereo) [Example 141, trans-2-(5-(3-((2-(3-carboxy-3-methylbutyl)-4-fluoro-6-methoxybenzo[b]thiophen-5-yl)oxy)propoxy)-4-fluoro-6-methoxybenzo[b]thiophene-2-carbonyl)cyclobutane-1-carboxylic acid], the EC50 was 219 nM at full-length WT STING and 24 nM on full-length HAQ STING. Moreover, the activation at 30 µM in experiment [1] stood at 143%.

With `COc1cc2sc(C(=O)C[C@H](C)C(=O)O)cc2c(F)c1OCCCOc1cc2sc(C(=O)[C@@H]3CC[C@H]3C(=O)O)cc2c(F)c1OC` (single isomer, unassigned) [Example 96], the EC50 on full-length WT STING is 628 nM; on full-length HAQ STING, 18 nM. For the same molecule, the activation at 30 µM in experiment [1] was 43%.

Broadly, the inhibition is the percentage by which the read-out fell short of the control. Low values mean a weak effect, high ones a strong effect. `COc1cc2sc(C(=O)CCC(=O)O)cc2c(F)c1OCCCCCOc1c(OC)cc2sc(C(=O)[C@@H]3CC[C@H]3C(=O)O)cc2c1F` (stereo in doubt) [Example 119, 2-(5-((5-((2-(3-carboxypropanoyl)-4-fluoro-6-methoxybenzo[b]thiophen-5-yl)oxy)pentyl)oxy)-4-fluoro-6-methoxybenzo[b]thiophene-2-carbonyl)cyclo-butanecarboxylic acid] came in with an inhibition at 20 µM at full-length WT STING (at 20,000 nM compound) of 32%. Also, in experiment [1], the activation at 30 µM came to 13%. For the same molecule, it took 1800 nM to reach a half-maximal effect on full-length HAQ STING (EC50).

For `COc1cc2sc(C(=O)C[C@H](C)C(=O)O)cc2cc1CCCCc1cc2cc(C(=O)C[C@H](C)C(=O)O)sc2cc1OC` [Example 1, (2S,2′S)-4,4′-[butane-1,4-diylbis(6-methoxy-1-benzothiene-5,2-diyl)]bis(2-methyl-4-oxobutanoic acid)], the half-maximal effective concentration (EC50) at full-length WT STING was 117 nM; on full-length HAQ STING it was 6 nM. Further, the activation at 30 µM in experiment [1] was found to be 26%.

As to `COc1cc2sc(C(=O)C[C@H](C)C(=O)O)cc2cc1CCCc1cc2cc(C(=O)C[C@H](C)C(=O)O)sc2cc1OC` [Example 2, (2S,2′S)-4,4′-[propane-1,3-diylbis(6-methoxy-1-benzothiene-5,2-diyl)]bis(2-methyl-4-oxobutanoic acid)], the EC50 on full-length WT STING was determined as 14 nM; at full-length HAQ STING it was 7 nM. In experiment [1], the activation at 30 µM came to 192%.

Regarding `COc1cc2sc(C(=O)CCC(=O)O)cc2cc1CCCOc1nc2cc(C(=O)C[C@H](C)C(=O)O)sc2cc1OC` [Example 3, (S)-4-(5-(3-(2-(3-carboxypropanoyl)-6-methoxybenzo[b]thiophen-5-yl)propoxy)-6-methoxythieno[3,2-b]pyridin-2-yl)-2-methyl-4-oxobutanoic acid], the EC50 at full-length WT STING worked out at 273 nM; on full-length HAQ STING, 114 nM. Also, the activation at 30 µM in experiment [1] amounted to 151%.

For the molecule `COc1cc2sc(C(=O)CCC(=O)O)cc2nc1OCCCc1ccc2sc(C(=O)CCC(=O)O)cc2c1` [Example 4, 4-(5-(3-((2-(3-carboxypropanoyl)-6-methoxythieno [3,2-b]pyridin-5-yl)oxy)propyl)benzo[b]thiophen-2-yl)-4-oxobutanoic acid], the EC50 at full-length WT STING was 33 nM; on full-length HAQ STING, 6 nM. In experiment [1], the activation at 30 µM amounted to 93%.

Turning to `COc1cc2sc(C(=O)CCC(=O)O)cc2cc1CCCOc1cc2nc(C(=O)CCC(=O)O)sc2cc1OC` [Example 5, 4-(5-(3-(2-(3-carboxypropanoyl)-6-methoxybenzo [b]thiophen-5-yl)propoxy)-6-methoxybenzo[d]thiazol-2-yl)-4-oxobutanoic acid], the EC50 at full-length WT STING is 381 nM; on full-length HAQ STING, 84 nM. For the same molecule, in experiment [1], the activation at 30 µM worked out at 96%.

Values taken from patent publication US10793557B2, “Sting agonist compounds” (Merck Sharp & Dohme Corp., priority 2018, dated 2020).
